{"source": "patent US20130143845A1", "about": "“VITAMIN D COMPOUNDS AND METHODS FOR ENHANCING MUSCLE STRENGTH, AND PREVENTION AND TREATMENT OF DISEASE IN HUMAN BEINGS” (priority 2011, published 2013)", "origin": "cited, not measured here", "conditions": "in circulation", "note": "Like-named read-outs stand apart in the source and are kept apart here.", "data": [{"molecule": "C=C1/C(=C\\C=C2/CCC[C@]3(C)[C@@H]([C@H](C)CCCC(C)(C)O)CC[C@@H]23)C[C@@H](O)C[C@@H]1O", "note": "[1,25(OH)2D3, 1α,25-dihydroxyvitamin D3]", "values": [{"measurement": "half-life of 1,25(OH)2D3", "setting": "prolonged by the invention (D3FACCPG), Lichtmann, personal communication", "value": "approximately 12 hours"}, {"measurement": "half-life of 1,25(OH)2D3", "setting": "without the invention (Holick, 2003)", "value": "approximately 4 hours"}]}]}
